Assay results as given in the supplement of paper PMC10290057.
Structures can show the parent of a compound that is named as a salt.

Key:
HCT116 [1] = test: AC50 cell viability (CellTiter-Glo); higher = less potent; conditions: 48 h
HCT116 [2] = test: efficacy (fitted maximal change in viability relative to DMSO control); higher = less cytotoxic (negative = loss of viability); conditions: 48 h
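Throughout, for AC50 cell viability (CellTiter-Glo): HCT116 colorectal carcinoma cells screened at five concentrations per compound, luminescent viability scaled between DMSO wells and empty wells on each plate, curves fitted per compound.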
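Throughout, for efficacy (fitted maximal change in viability relative to DMSO control): Luminescence-based viability readout, five doses per compound, normalized against on-plate DMSO and empty-well controls, followed by dose-response curve fitting for every drug.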

## CCc1cccc(CC)c1NC(=O)N1Cc2[nH]nc(NC(=O)c3ccc(N4CCN(C)CC4)cc3)c2C1
HCT116 [1]
  AC50 cell viability: 11.8 µM
HCT116 [2]
  efficacy: -88.9%

## C[C@]12CC[C@H]3[C@@H](CC(=C)\C4=C\C(=O)\C=C/[C@]34C)[C@@H]1CCC2=O [Exemestane]
HCT116 [1]
  AC50 cell viability: 18.6 µM
HCT116 [2]
  efficacy: -65%

## O=C(/C=C\n1cnc(-c2cc(C(F)(F)F)cc(C(F)(F)F)c2)n1)NNc1cnccn1 [Selinexor]
HCT116 [1]
  AC50 cell viability: 0.372 µM
HCT116 [2]
  efficacy: -93.1%

## CN(C)CCN1C(=O)c2cccc3cc(NC(N)=O)cc(c23)C1=O [UNBS-5162]
HCT116 [1]
  AC50 cell viability: 4.68 µM
HCT116 [2]
  efficacy: -75%

## Cc1cc2c(C(C)C)c(O)c(O)c(C=O)c2c(O)c1-c1c(C)cc2c(C(C)C)c(O)c(O)c(C=O)c2c1O [(-)-Gossypol]
HCT116 [1]
  AC50 cell viability: 16.6 µM
HCT116 [2]
  efficacy: -115%

## COc1ccc(-c2ccc3c(N4CCOC[C@@H]4C)nc(N4CCOC[C@@H]4C)nc3n2)cc1CO [AZD-8055]
HCT116 [1]
  AC50 cell viability: 0.295 µM
HCT116 [2]
  efficacy: -51.6%

## CC(C)(O)CNc1nc(Nc2ccnc(C(F)(F)F)c2)nc(-c2cccc(C(F)(F)F)n2)n1 [Enasidenib]
HCT116 [1]
  AC50 cell viability: 18.6 µM
HCT116 [2]
  efficacy: -71.3%

## CC[C@@]1(O)C[C@H](O[C@H]2C[C@H](N(C)C)[C@H](O[C@H]3C[C@H](O)[C@H](O[C@H]4CCC(=O)[C@H](C)O4)[C@H](C)O3)[C@H](C)O2)c2c(cc3c(c2O)C(=O)c2c(O)cccc2C3=O)[C@H]1C(=O)OC [Aclarubicin]
HCT116 [1]
  AC50 cell viability: 3.72 µM
HCT116 [2]
  efficacy: -89.2%

## CNc1nc(-c2ccc3c(N)n[nH]c3c2)cc(N2C[C@@H](C(=O)NC3CCCCC3)CC[C@H]2C)n1
HCT116 [1]
  AC50 cell viability: 18.6 µM
HCT116 [2]
  efficacy: -110%

## Cc1nc(NC(=O)N2CCC[C@H]2C(N)=O)sc1-c1csc(C(C)(C)C)n1 [A-66]
HCT116 [1]
  AC50 cell viability: 1.86 µM
HCT116 [2]
  efficacy: -33%

## Oc1ccc(-c2ccc(-c3cc(Nc4cccc(CNC5CC5)c4)[nH]n3)cc2)c(O)c1 [TCS-2312]
HCT116 [1]
  AC50 cell viability: 3.32 µM
HCT116 [2]
  efficacy: -77.1%

## COc1cc2nc(-c3cc(F)ccc3O)nc(N[C@@H]3CNC[C@H]3C(C)(C)O)c2cc1OC
HCT116 [1]
  AC50 cell viability: 3.72 µM
HCT116 [2]
  efficacy: -87.7%

## CC[C@@]1([C@@H]2O[C@@H]([C@H]3O[C@@](O)(CO)[C@H](C)C[C@@H]3C)C[C@@H]2C)CC[C@H]([C@]2(C)CC[C@]3(C[C@H](O)[C@@H](C)[C@@H]([C@@H](C)[C@@H](OC)[C@H](C)C(=O)[O-])O3)O2)O1 [Monensin sodium salt]
HCT116 [1]
  AC50 cell viability: 0.456 µM
HCT116 [2]
  efficacy: -47.4%

## CN(C)Cc1ccc([S+](=O)([O-])n2ccc(/C=C/C(=O)NO)c2)cc1 [Resminostat]
HCT116 [1]
  AC50 cell viability: 2.35 µM
HCT116 [2]
  efficacy: -103%

## CCC[C@H](N[C@H]1CCc2cc(F)cc(F)c2C1)C(=O)Nc1cn(C(C)(C)CNCC(C)(C)C)cn1 [Nirogacestat]
HCT116 [1]
  AC50 cell viability: 20.9 µM
HCT116 [2]
  efficacy: -90.3%

## NC(=O)c1cnc(N[C@@H]2CCCC[C@@H]2N)nc1Nc1cccc(-n2nccn2)c1
HCT116 [1]
  AC50 cell viability: 10.5 µM
HCT116 [2]
  efficacy: -90.7%

## CC(C)C(=O)Nc1ncc(-c2cc(C(F)F)nn2-c2c(Cl)cccc2Cl)s1 [BMS-5]
HCT116 [1]
  AC50 cell viability: 18.6 µM
HCT116 [2]
  efficacy: -80.8%

## CN1CCN(C(=O)c2ccc3cc(CCNc4ncnc5ccc(C#N)cc45)ccc3c2)CC1 [Senexin-B]
HCT116 [1]
  AC50 cell viability: 13.2 µM
HCT116 [2]
  efficacy: -72.9%

## C[C@H]1O[C@H](C[C@H](O)[C@@H]1O)O[C@H]2[C@@H](O)C[C@@H](O[C@@H]2C)O[C@H]3[C@@H](O)C[C@@H](O[C@@H]3C)O[C@H]4CC[C@@]5(C)[C@H](CC[C@@H]6[C@@H]5C[C@@H](O)[C@]7(C)[C@H](CC[C@]67O)C/8=C/C(=O)OC8)C4 [Digoxin]
HCT116 [1]
  AC50 cell viability: 0.0525 µM
HCT116 [2]
  efficacy: -80.9%

## Cc1ccc(-n2nc(C(C)(C)C)cc2NC(=O)Nc2ccc(OCCN3CCOCC3)c3ccccc23)cc1 [Doramapimod]
HCT116 [1]
  AC50 cell viability: 20.9 µM
HCT116 [2]
  efficacy: -76.9%

## C[C@@H](N)c1ccc(C(=O)Nc2ccnc3[nH]ccc23)cc1
HCT116 [1]
  AC50 cell viability: 4.68 µM
HCT116 [2]
  efficacy: -62.4%
